Laboratory results from patent publication US20120189677A1, “FORMULATIONS” (priority 2011, published 2012).
Like-named read-outs stand apart in the source and are kept apart here.

What was measured:
[1] = Particle size analysis (FIG. 3); assay type: physicochemical; conditions: Brij35P 7.0% w/w, S-75 1% w/w, maltodextrin 2% w/w; 25:2 dilution
[2] = Clarity of surfactant/lipid compositions with or without maltodextrin (Example 2); assay type: physicochemical; conditions: surfactant at % given in row, S-75 lipid, low temperature process; for Clarity with maltodextrin (2%): 2% maltodextrin; for Clarity without maltodextrin: no maltodextrin
[3] = Turbidity of surfactant added to standard maltodextrin/lipid emulsion at room temperature (Example 1); assay type: physicochemical; conditions: surfactant 7% w/w in emulsion of 2% C* Dry MD 01958 maltodextrin and 1% S-75 lipid
[4] = approximate average of manufacturer and literature values; cited from earlier work
[5] = HLB values of surfactants (manufacturer/literature or equation); assay type: physicochemical; conditions: from HLB=20[1-(S/A)], S 45.5, A 276

Substance	Turbidity (FNU) [3] [FNU]	HLB [4]	other results
Laureth-23 [Brij 35P]	–	–	polydispersity [1]: 0.625; principal/dominant particle size [1]: 8.68 nm; Clarity with maltodextrin (2%) [2]: 128.1 FNU; Clarity without maltodextrin [2]: 184 FNU
Nonoxynol-9	8.87	12.9	–
Nonoxynol-10	8.29	13.6	–
Nonoxynol-40	>150	17.8	–
Octoxynol-5	>150	10.4	–
Octoxynol-9	7.75	–	–
Octoxynol-12	4.32	14.5	–
Octoxynol-16	7.55	–	–
Octoxynol-30	>150	17.1	–
Octoxynol-40	>150	17.9	–
Polysorbate-20 [Polysorbate 20]	–	–	Clarity with maltodextrin (2%) [2]: 59.5 FNU; Clarity without maltodextrin [2]: 79.5 FNU; HLB [5]: 16.7
